From patent publication US20240199558A1, “2,4,6-TRISUBSTITUTED 1,3,5-TRIAZINES AS MODULATORS OF CX3CR1” (ASTRAZENECA AB, priority 2022, published 2024)
pIC50: −log10 of the molar value.

What follows are molecules tested against CX3CR1 (Homo sapiens (Human), UniProt P49238) (assay: hCX3CR1 [3H]-AZD8797 competitive binding assay (filter)). Conditions: CHO-hCX3CR1 membranes, 2 nM [3H]-AZD8797.
In short: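 Filtration radioligand displacement assay: competitor titrations compete with 2 nM [3H]-AZD8797 for membranes from CHO cells expressing hCX3CR1 (9 μg/well). Incubation was 2 h at room temperature in HEPES pH 7.4 with MgCl2, CaCl2, 0.5% BSA and 1% DMSO. Filters were washed with ice-cold high-salt (500 mM NaCl) buffer, and retained radioactivity was scintillation-counted.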

CX3CR1, sequence (P49238 whole entry): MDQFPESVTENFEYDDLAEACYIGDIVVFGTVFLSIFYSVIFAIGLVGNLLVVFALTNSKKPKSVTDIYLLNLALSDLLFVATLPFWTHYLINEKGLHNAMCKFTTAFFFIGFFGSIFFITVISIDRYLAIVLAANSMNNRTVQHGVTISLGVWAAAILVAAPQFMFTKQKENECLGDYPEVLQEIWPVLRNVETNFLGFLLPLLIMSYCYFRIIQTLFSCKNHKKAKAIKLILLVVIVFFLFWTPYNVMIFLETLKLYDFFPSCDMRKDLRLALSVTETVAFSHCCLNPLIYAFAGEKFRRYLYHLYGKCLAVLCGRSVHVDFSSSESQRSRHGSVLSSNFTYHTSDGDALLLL

Going from `CC(C)C[C@H](CO)Nc1nc(CC(C)c2ccc(C#N)c(F)c2)nc(NS(C)(=O)=O)n1` (stereo partly drawn) [Example 141, N-(4-(2-(4-Cyano-3-fluorophenyl)propyl)-6-(((R)-1-hydroxy-4-methylpentan-2-yl)amino)-1,3,5-triazin-2-yl)methanesulfonamide] to `CC(C)C[C@H](CO)Nc1nc(CC(C)c2ccc(C#N)c(Cl)c2)nc(NS(C)(=O)=O)n1` (stereo partly drawn) [Example 169, N-(4-(2-(3-Chloro-4-cyanophenyl)propyl)-6-(((R)-1-hydroxy-4-methylpentan-2-yl)amino)-1,3,5-triazin-2-yl)methanesulfonamide], the pIC50 falls from 6.76 to 6.09 (0.67 log units). The first is the more potent here.

Going from `Cc1c2ccc(C(C)Cc3nc(N[C@@H](CO)CC(C)C)nc(NS(C)(=O)=O)n3)cc2nn1C` (stereo partly drawn) [Example 106, N-(4-(2-(2,3-Dimethyl-2H-indazol-6-yl)propyl)-6-(((R)-1-hydroxy-4-methylpentan-2-yl)amino)-1,3,5-triazin-2-yl)methanesulfonamide] to `Cc1ccc(C(C)Cc2nc(N[C@@H](CO)CC(C)C)nc(NS(C)(=O)=O)n2)cc1C` (stereo partly drawn) [Example 70, N-(4-(2-(3,4-Dimethylphenyl)propyl)-6-(((R)-1-hydroxy-4-methylpentan-2-yl)amino)-1,3,5-triazin-2-yl)methanesulfonamide], the pIC50 falls from 7.62 to 6.53 (1.09 log units).

Going from `CC(C)C[C@H](CO)Nc1nc(CC(C)c2ccc(N=S(C)(C)=O)cc2)nc(NS(C)(=O)=O)n1` (stereo partly drawn) [Example 63, N-(4-(2-(4-((Dimethyl(oxo)-λ^6-sulfaneylidene)amino)phenyl)propyl)-6-(((R)-1-hydroxy-4-methylpentan-2-yl)amino)-1,3,5-triazin-2-yl)methanesulfonamide] to `CC(=O)N(C)c1ccc(C(C)Cc2nc(N[C@@H](CO)CC(C)C)nc(NS(C)(=O)=O)n2)cc1` (stereo partly drawn) [Example 73, N-(4-(1-(4-(((R)-1-Hydroxy-4-methylpentan-2-yl)amino)-6-(methylsulfonamido)-1,3,5-triazin-2-yl)propan-2-yl)phenyl)-N-methylacetamide], the pIC50 falls from 6.94 to 6.20 (0.74 log units).

`CC(C)C[C@H](CO)Nc1nc(CC(C)c2ccc(F)cc2O)nc(NS(C)(=O)=O)n1` (stereo partly drawn) [Example 142, N-(4-(2-(4-Fluoro-2-hydroxyphenyl)propyl)-6-(((R)-1-hydroxy-4-methylpentan-2-yl)amino)-1,3,5-triazin-2-yl)methanesulfonamide] and `CC(C)C[C@H](CO)Nc1nc(CC(C)c2cc(Cl)ccc2O)nc(NS(C)(=O)=O)n1` (stereo partly drawn) [Example 107, N-(4-(2-(5-Chloro-2-hydroxyphenyl)propyl)-6-(((R)-1-hydroxy-4-methylpentan-2-yl)amino)-1,3,5-triazin-2-yl)methanesulfonamide] are within 0.2 log units of each other in pIC50: 6.96 for the first, 6.95 for the second.

`CC(C)C[C@H](CO)Nc1nc(CC(C)c2ccc(OC(C)C)c(F)c2)nc(NS(C)(=O)=O)n1` (stereo partly drawn) [Example 140, N-(4-(2-(3-Fluoro-4-isopropoxyphenyl)propyl)-6-(((R)-1-hydroxy-4-methylpentan-2-yl)amino)-1,3,5-triazin-2-yl)methanesulfonamide] and `Cc1ccc(C(C)Cc2nc(N[C@@H](CO)CC(C)C)nc(NS(C)(=O)=O)n2)cc1F` (stereo partly drawn) [Example 56, N-(4-(2-(3-Fluoro-4-methylphenyl)propyl)-6-(((R)-1-hydroxy-4-methylpentan-2-yl)amino)-1,3,5-triazin-2-yl)methanesulfonamide] are within 0.2 log units of each other in pIC50: 6.76 for the first, 6.69 for the second.

`COc1cccc(C(C)Cc2nc(N[C@@H](CO)CC(C)C)nc(NS(C)(=O)=O)n2)c1F` (stereo partly drawn) [Example 99, N-(4-(2-(2-Fluoro-3-methoxyphenyl)propyl)-6-(((R)-1-hydroxy-4-methylpentan-2-yl)amino)-1,3,5-triazin-2-yl)methanesulfonamide] and `COc1ccc([C@@H](C)Cc2nc(N[C@@H](CO)CC(C)C)nc(NS(C)(=O)=O)n2)c(F)n1` (single isomer, unassigned) [Example 86, N-(4-((S*)-2-(2-Fluoro-6-methoxypyridin-3-yl)propyl)-6-(((R)-1-hydroxy-4-methylpentan-2-yl)amino)-1,3,5-triazin-2-yl)methanesulfonamide] are within 0.2 log units of each other in pIC50: 7.11 for the first, 7.14 for the second.

Going from `CC(C)C[C@H](CO)Nc1nc(CC(C)c2cccc3c(=O)n(C)cnc23)nc(NS(C)(=O)=O)n1` (stereo partly drawn) [Example 109, N-(4-(((R)-1-Hydroxy-4-methylpentan-2-yl)amino)-6-(2-(3-methyl-4-oxo-3,4-dihydroquinazolin-8-yl)propyl)-1,3,5-triazin-2-yl)methanesulfonamide] to `CC(C)C[C@H](CO)Nc1nc(CC(C)c2cccc(Cl)c2O)nc(NS(C)(=O)=O)n1` (stereo partly drawn) [Example 137, N-(4-(2-(3-Chloro-2-hydroxyphenyl)propyl)-6-(((R)-1-hydroxy-4-methylpentan-2-yl)amino)-1,3,5-triazin-2-yl)methanesulfonamide], the pIC50 falls from 7.08 to 6.49 (0.59 log units). The first is the more potent here.

`CC(C)C[C@H](CO)Nc1nc(CC(C)c2ccc(C(C)(F)F)cc2)nc(NS(C)(=O)=O)n1` (stereo partly drawn) [Example 71, N-(4-(2-(4-(1,1-Difluoroethyl)phenyl)propyl)-6-(((R)-1-hydroxy-4-methylpentan-2-yl)amino)-1,3,5-triazin-2-yl)methanesulfonamide] and `CC(=O)Nc1ccc(C(C)Cc2nc(N[C@@H](CO)CC(C)C)nc(NS(C)(=O)=O)n2)cc1` (stereo partly drawn) [Example 59, N-(4-(1-(4-(((R)-1-Hydroxy-4-methylpentan-2-yl)amino)-6-(methylsulfonamido)-1,3,5-triazin-2-yl)propan-2-yl)phenyl)acetamide] are within 0.2 log units of each other in pIC50: 6.48 for the first, 6.53 for the second.

First: CC(C)C[C@H](CO)Nc1nc(CC(C)c2cccc(-c3ccccc3)c2)nc(NS(C)(=O)=O)n1 (stereo partly drawn) [Example 157]
Second: CC(C)C[C@H](CO)Nc1nc(CC(C)c2cnc3ccccc3c2)nc(NS(C)(=O)=O)n1 (stereo partly drawn) [Example 134, N-(4-(((R)-1-Hydroxy-4-methylpentan-2-yl)amino)-6-(2-(quinolin-3-yl)propyl)-1,3,5-triazin-2-yl)methanesulfonamide]
The pIC50 of the first is 1.33 log units lower: 5.36 for the first, 6.69 for the second. The second is the more potent here.

First: CC(C)C[C@H](CO)Nc1nc(CC(C)c2cccc(C3COC3)c2)nc(NS(C)(=O)=O)n1 (stereo partly drawn) [Example 105, N-(4-(((R)-1-Hydroxy-4-methylpentan-2-yl)amino)-6-(2-(3-(oxetan-3-yl)phenyl)propyl)-1,3,5-triazin-2-yl)methanesulfonamide]
Second: CC(C)C[C@H](CO)Nc1nc(C[C@@H](C)c2ccc(F)c(Cl)c2)nc(NS(C)(=O)=O)n1 (single isomer, unassigned) [Example 66, N-(4-((R*)-2-(3-Chloro-4-fluorophenyl)propyl)-6-(((R)-1-hydroxy-4-methylpentan-2-yl)amino)-1,3,5-triazin-2-yl)methanesulfonamide]
The pIC50 of the first is 0.26 log units higher: 6.91 for the first, 6.65 for the second. The first is the more potent here.

First: CC(C)C[C@H](CO)Nc1nc(C[C@@H](C)c2cc(F)c(F)c(F)c2)nc(NS(C)(=O)=O)n1 (single isomer, unassigned) [Example 22, N-(4-(((R)-1-Hydroxy-4-methylpentan-2-yl)amino)-6-((R*)-2-(3,4,5-trifluorophenyl)propyl)-1,3,5-triazin-2-yl)methanesulfonamide]
Second: CC(C)C[C@H](CO)Nc1nc(C[C@H](C)c2cc(F)c(Cl)cc2F)nc(NS(C)(=O)=O)n1 (single isomer, unassigned) [Example 37, N-(4-((S*)-2-(4-Chloro-2,5-difluorophenyl)propyl)-6-(((R)-1-hydroxy-4-methylpentan-2-yl)amino)-1,3,5-triazin-2-yl)methanesulfonamide]
The pIC50 of the first is 0.88 log units higher: 6.59 for the first, 5.71 for the second.

First: CC(C)C[C@H](CO)Nc1nc(CCC(F)(F)c2ccc(Cl)cc2)nc(NS(C)(=O)=O)n1 [Example 153, (R)—N-(4-(3-(4-Chlorophenyl)-3,3-difluoropropyl)-6-((1-hydroxy-4-methylpentan-2-yl)amino)-1,3,5-triazin-2-yl)methanesulfonamide]
Second: CC(C)C[C@H](CO)Nc1nc(C[C@@H](C)c2cc(Cl)ccc2F)nc(NS(C)(=O)=O)n1 (single isomer, unassigned) [Example 30, N-(4-((R*)-2-(5-Chloro-2-fluorophenyl)propyl)-6-(((R)-1-hydroxy-4-methylpentan-2-yl)amino)-1,3,5-triazin-2-yl)methanesulfonamide]
The pIC50 of the first is lower: less than 5.00 for the first, 6.83 for the second. The second is the more potent here.

First: CCOc1ccc([C@@H](C)Cc2nc(N[C@@H](CO)CC(C)C)nc(NS(C)(=O)=O)n2)cn1 (single isomer, unassigned) [Example 28, N-(4-((S*)-2-(6-Ethoxypyridin-3-yl)propyl)-6-(((R)-1-hydroxy-4-methylpentan-2-yl)amino)-1,3,5-triazin-2-yl)methanesulfonamide]
Second: CC(C)C[C@H](CO)Nc1nc(C[C@@H](C)c2ccc(N)nc2)nc(NS(C)(=O)=O)n1 (single isomer, unassigned) [Example 51, N-(4-((R*)-2-(6-Aminopyridin-3-yl)propyl)-6-(((R)-1-hydroxy-4-methylpentan-2-yl)amino)-1,3,5-triazin-2-yl)methanesulfonamide]
The pIC50 of the first is 1.96 log units lower: 5.56 for the first, 7.52 for the second.

First: CC(C)C[C@H](CO)Nc1nc(CC(c2ccccc2)C(F)(F)F)nc(NS(C)(=O)=O)n1 (stereo partly drawn) [Example 151, N-(4-(((R)-1-Hydroxy-4-methylpentan-2-yl)amino)-6-(3,3,3-trifluoro-2-phenylpropyl)-1,3,5-triazin-2-yl)methanesulfonamide]
Second: CC(C)C[C@H](CO)Nc1nc(CC(C)(C)c2ccccc2)nc(NS(C)(=O)=O)n1 [Example 152, (R)—N-(4-((1-Hydroxy-4-methylpentan-2-yl)amino)-6-(2-methyl-2-phenylpropyl)-1,3,5-triazin-2-yl)methanesulfonamide]
The pIC50 of the first is higher: 6.31 for the first, less than 5.10 for the second.

Going from `CC(C)C[C@H](CO)Nc1nc(CC(C)c2ccc3[nH]ccc3c2)nc(NS(C)(=O)=O)n1` (stereo partly drawn) [Example 60, N-(4-(2-(1H-Indol-5-yl)propyl)-6-(((R)-1-hydroxy-4-methylpentan-2-yl)amino)-1,3,5-triazin-2-yl)methanesulfonamide] to `CC(C)C[C@H](CO)Nc1nc(CC(C)c2cc(O)c3c(c2)CCCC3)nc(NS(C)(=O)=O)n1` (stereo partly drawn) [Example 104], the pIC50 rises from 6.99 to 7.42 (0.43 log units).
